Assay results published in article PMC11090936, “The leukemia inhibitory factor regulates fibroblast growth factor receptor 4 transcription in gastric cancer” (Cellular Oncology, 2023).

Target: T1, LIFR (leukemia inhibitory factor receptor) (Homo sapiens, UniProt P42702)
T1 construct: with LIF
Test: cell-free AlphaScreen, inhibition of LIF/LIFR binding

T1 sequence (P42702 45-1097): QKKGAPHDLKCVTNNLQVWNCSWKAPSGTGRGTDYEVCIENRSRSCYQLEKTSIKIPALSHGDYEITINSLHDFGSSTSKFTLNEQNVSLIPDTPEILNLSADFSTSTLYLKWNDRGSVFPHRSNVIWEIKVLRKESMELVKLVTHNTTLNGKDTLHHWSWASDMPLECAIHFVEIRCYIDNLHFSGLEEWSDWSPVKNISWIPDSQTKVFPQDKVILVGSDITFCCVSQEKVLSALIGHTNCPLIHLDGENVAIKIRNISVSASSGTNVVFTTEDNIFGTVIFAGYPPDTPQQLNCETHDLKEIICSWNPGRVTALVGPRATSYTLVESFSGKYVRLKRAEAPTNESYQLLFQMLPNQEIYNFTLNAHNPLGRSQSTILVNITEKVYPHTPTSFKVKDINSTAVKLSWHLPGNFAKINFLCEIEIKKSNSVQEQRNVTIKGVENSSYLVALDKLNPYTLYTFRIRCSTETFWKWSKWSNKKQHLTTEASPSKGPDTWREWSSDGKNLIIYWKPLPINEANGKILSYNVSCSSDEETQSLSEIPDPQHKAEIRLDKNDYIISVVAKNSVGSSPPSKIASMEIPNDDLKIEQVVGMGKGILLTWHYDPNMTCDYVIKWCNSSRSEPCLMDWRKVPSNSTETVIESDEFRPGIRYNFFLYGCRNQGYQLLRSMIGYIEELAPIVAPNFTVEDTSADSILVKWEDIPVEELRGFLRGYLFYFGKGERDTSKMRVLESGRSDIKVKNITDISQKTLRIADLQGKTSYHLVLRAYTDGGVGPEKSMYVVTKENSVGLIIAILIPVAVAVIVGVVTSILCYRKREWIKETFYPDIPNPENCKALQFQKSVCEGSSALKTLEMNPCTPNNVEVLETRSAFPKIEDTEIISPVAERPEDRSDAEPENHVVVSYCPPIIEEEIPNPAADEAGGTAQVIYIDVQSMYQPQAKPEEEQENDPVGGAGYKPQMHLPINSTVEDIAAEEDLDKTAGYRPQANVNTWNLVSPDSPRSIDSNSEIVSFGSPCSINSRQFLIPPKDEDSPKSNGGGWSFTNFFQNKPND
T1 sequence (P15018 23-202 partner): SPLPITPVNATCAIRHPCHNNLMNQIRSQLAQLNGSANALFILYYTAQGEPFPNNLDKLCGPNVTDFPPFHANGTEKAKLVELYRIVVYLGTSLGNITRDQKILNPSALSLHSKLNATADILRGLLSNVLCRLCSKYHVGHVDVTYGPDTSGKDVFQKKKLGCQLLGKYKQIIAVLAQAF

In the case of `C=CC[C@]1(O)CCC2C3CCC4=CC(=O)CCC4=C3[C@@H](c3ccc(-c4ccccc4)cc3)C[C@@]21C` (stereo partly shown) [LRI-201], the IC50 is reported as 21.9 ± 2.16 µM.
